# PMC11915372, “Identification of a Series Containing a Pentafluorophenyl Moiety That Targets Pks13 to Inhibit Growth of Mycobacterium tuberculosis” (ACS Infectious Diseases, 2025)
# Where two headings read alike, the source gives them in different places.
# Tests used:
# physchem [1] = details: pH 7.4
# HepG2 cells = test: HepG2 cytotoxicity; details: Homo sapiens, HepG2, read-out: HepG2 inhibitory concentration (IC50)
# Text: Assays to establish HepG2 cytotoxicity, in vitro microsomal/hepatocyte metabolic stability, aqueous kinetic solubility, and in vivo pharmacokinetic profiles were all performed as previously described.[15],[35]−[37]
# physchem [2] = type: physicochemical
# [3] = type: in vitro ADME, mouse; details: for Mouse micro Cl: microsomes; for Microsomal Cli: CD1, mouse
# [4] = system: mycolic acid biosynthesis; details: with accumulation of mycolic acid precursors; cited from earlier work
# [5] = type: in vitro ADME, mouse; details: mouse; for Mouse Heps Cl: hepatocytes
# M. tuberculosis (H37Rv) = test: microbe, parasite or virus in culture; type: cell-based, Mycobacterium tuberculosis; details: for MIC: Mycobacterium tuberculosis, H37RV
# [6] = pH 7.4, aqueous buffer, kinetic from dmso stock
# [7] = read-out: Wk2_7H9/DPPC/ casitone/ Tyloxapol MIC
# [8] = read-out: Wk2_ 7H9/DPPC/ cholesterol/BSA/ Tyloxapol MIC
# [9] = read-out: Wk2_7H9/glucose/ BSA/Tyloxapol MIC
# [10] = read-out: Wk2_7H9/glucose/ casitone/ Tyloxapol MIC
Structure (SMILES),chromatographic logD (physchem [1]),IC50 (HepG2 cells) [µM],"solubility kinetic (physchem [2]; water, kinetic from dmso stock) [µM]",Mouse micro Cl [3],effect on mycolic acid biosynthesis [4],Mouse Heps Cl [5],MIC (M. tuberculosis (H37Rv); read-out: H37Rv MIC A) [µM],MIC (M. tuberculosis (H37Rv); read-out: H37Rv MIC B) [µM],solubility kinetic (physchem [2]; [6]) [µM],solubility kinetic (physchem [2]; read-out: Kin. Sol) [µM],Microsomal Cli [3] [mL/min/g],Hepatocyte Cli [5] [mL/min/g],MIC (M. tuberculosis (H37Rv); [7]) [µM],MIC (M. tuberculosis (H37Rv); [8]) [µM],MIC (M. tuberculosis (H37Rv); [9]) [µM],MIC (M. tuberculosis (H37Rv); [10]) [µM],loss of MIC potency (M. tuberculosis (H37Rv); relative to comparator of the series (21 vs thiophenes; 42 vs 24)) [fold]
"CCOC(=O)c1c(NC(=O)c2c(F)c(F)c(F)c(F)c2F)sc(C(N)=O)c1C [TP4, reference compound]",3.4,4.3,1.1,13 mLmin/g,inhibited mycolic acid biosynthesis,>50 mLmin/g,0.03,0.26,,,,,,,,,
"CCOC(=O)c1nc(CN(C)C)oc1NC(=O)c1c(F)c(F)c(F)c(F)c1F [Compound 35, CCOC(=O)c1nc(oc1NC(=O)c1c(c(c(c(c1F)F)F)F)F)CN(C)C]",1.3,> 100,,<0.5 mL/min/g,,4.7 mL/min/g,2.3,4.7,225,225,<0.5,4.7,2.3,4.7,4.7,1.6,
"CCOC(=O)c1nc(N(C)C)oc1NC(=O)c1c(F)c(F)c(F)c(F)c1F [Compound 32, CCOC(=O)c1nc(oc1NC(=O)c1c(c(c(c(c1F)F)F)F)F)N(C)C]",2.4,> 100,,1.4 mL/min/g,,22 mL/min/g,0.2,0.6,221,221,1.4,22,0.2,0.6,1.2,0.3,
"CC(=O)c1nc(C)oc1NC(=O)c1c(F)c(F)c(F)c(F)c1F [Compound 39, CC(=O)c1nc(oc1NC(=O)c1c(c(c(c(c1F)F)F)F)F)C]",1.2,> 100,,<0.5 mL/min/g,,8.6 mL/min/g,1.2,3.1,241,241,<0.5,8.6,1.2,3.1,3.1,1.2,
"Cc1ncc(NC(=O)c2c(F)c(F)c(F)c(F)c2F)o1 [Compound 37, Cc1ncc(o1)NC(=O)c1c(c(c(c(c1F)F)F)F)F]",1.9,> 100,,<0.5 mL/min/g,,5.8 mL/min/g,> 50,> 50,105,105,<0.5,5.8,> 50,> 50,> 50,> 50,
"CCOC(=O)c1nc(-c2ccccc2)oc1NC(=O)c1c(F)c(F)c(F)c(F)c1F [Compound 34, CCOC(=O)c1nc(oc1NC(=O)c1c(c(c(c(c1F)F)F)F)F)-c1ccccc1]",3,93,,6.9 mL/min/g,,10 mL/min/g,0.8,4.7,21,21,6.9,10,0.8,4.7,4.7,0.3,
"Cc1nnc(-c2nc(C)oc2NC(=O)c2c(F)c(F)c(F)c(F)c2F)o1 [Compound 42, Cc1nnc(o1)-c1nc(oc1NC(=O)c1c(c(c(c(c1F)F)F)F)F)C]",1.1,> 100,,<0.5 mL/min/g,,2.5 mL/min/g,2.3,6.3,174,174,<0.5,2.5,2.3,6.3,4.7,2.3,10
